Consider eight molecules from patent US20260125382A1, “COMPOUNDS FOR INHIBITING OR DEGRADING CDK2 AND/OR CDK9 AND MEDICINAL USE THEREOF” (KOREA RESEARCH INSTITUTE OF CHEMICAL TECHNOLOGY, priority 2022, published 2026).

One test has as its target T1, CDK2 (Homo sapiens, UniProt P24941).
T1 construct: endogenous in cells; host or cells: MDA-MB-231
The test can be described thus: CDK protein degradation activity (Western blotting), CDK2. The class given is cell-based. To be noted: MDA-MB-231 cells, 16 hours, Western blot. Summed up:
(§1)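 Seed MDA-MB-231 cells; next day add compound to 100 nM, 1 μM or 10 μM final, or DMSO. After 16 h, harvest and lyse in Triton X-100 buffer, run SDS-PAGE, probe for CDK2, CDK9 and tubulin.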
In general terms: Immunoblotting shows a protein as a band on a membrane.

For the next test, the target named is T2, CDK9 (Homo sapiens, UniProt P50750).
T2 construct: endogenous in cells; host or cells: MDA-MB-231
The test can be described thus: CDK protein degradation activity (Western blotting), CDK9. To be noted: MDA-MB-231 cells, 16 hours, Western blot. The class given is cell-based. Summed up: as §1

T2 sequence (P50750 whole entry): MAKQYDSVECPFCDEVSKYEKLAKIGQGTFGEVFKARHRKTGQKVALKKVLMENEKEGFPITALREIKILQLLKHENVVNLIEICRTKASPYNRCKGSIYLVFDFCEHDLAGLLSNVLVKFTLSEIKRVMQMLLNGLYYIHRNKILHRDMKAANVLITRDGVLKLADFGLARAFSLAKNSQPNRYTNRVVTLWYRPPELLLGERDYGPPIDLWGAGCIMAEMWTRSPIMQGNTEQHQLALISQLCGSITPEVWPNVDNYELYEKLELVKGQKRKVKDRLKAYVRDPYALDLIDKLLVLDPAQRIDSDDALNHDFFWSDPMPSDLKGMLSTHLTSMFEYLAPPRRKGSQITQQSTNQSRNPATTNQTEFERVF

For `O=C1CC[C@H](N2C(=O)c3ccc(NCC(=O)N4CCN(CC5CCN(c6ccc(Nc7ncnc8c7ncn8[C@H]7C[C@@H](NC(=O)c8c(Cl)cccc8Cl)C7)cc6)CC5)CC4)cc3C2=O)C(=O)N1` [Compound 312, 2,6-dichloro-N-((1s,3s)-3-(6-((4-(4-((4-((2-(2,6-dioxopiperidin-3-yl)-1,3-dioxoisoindolin-5-yl)glycyl)piperazin-1-yl)methyl)piperidin-1-yl)phenyl)amino)-9H-purin-9-yl)cyclobutyl)benzamide], on CDK2, the “Enzyme degradation CDK2 (% remaining) @ 0.1 μM” value is given as 10/10/10%, the “Enzyme degradation CDK2 (% remaining) @ 1 μM” value was 10/10/10% and the “Enzyme degradation CDK2 (% remaining) @ 10 μM” value was 10/10/10%. On CDK9, the “Enzyme degradation CDK9 (% remaining) @ 0.1 μM” value is on record as 0/0/0%, the “Enzyme degradation CDK9 (% remaining) @ 1 μM” value is recorded as 0/0/0% and the “Enzyme degradation CDK9 (% remaining) @ 10 μM” value was 0/0/0%.
For the molecule `O=C1CC[C@H](n2nnc3ccc(N4CCC5(CC4)CC(N4CCN(c6ccc(Nc7ncnc8c7ncn8[C@H]7C[C@@H](NC(=O)Cc8ccccc8)C7)cc6)CC4)C5)cc3c2=O)C(=O)N1` [Compound 314, N-((1s,3s)-3-(6-((4-(4-(7-(3-(2,6-dioxopiperidin-3-yl)-4-oxo-3,4-dihydrobenzo[d][1,2,3]triazin-6-yl)-7-azaspiro[3.5]nonan-2-yl)piperazin-1-yl)phenyl)amino)-9H-purin-9-yl)cyclobutyl)-2-phenylacetamide], on CDK2, the “Enzyme degradation CDK2 (% remaining) @ 0.1 μM” value was 10/10/10%, the “Enzyme degradation CDK2 (% remaining) @ 1 μM” value is on record as 10/10/10% and the “Enzyme degradation CDK2 (% remaining) @ 10 μM” value is 10/10/10%. In addition, at CDK9, the “Enzyme degradation CDK9 (% remaining) @ 0.1 μM” value came to 10%, the “Enzyme degradation CDK9 (% remaining) @ 1 μM” value is reported as 0% and the “Enzyme degradation CDK9 (% remaining) @ 10 μM” value was 0%.
On to `O=C1CC[C@H](N2C(=O)c3ccc(N4CCC5(CC4)CC(N4CCN(c6ccc(Nc7ncnc8c7ncn8C7CC(NC(=O)c8c(Cl)cccc8Cl)C7)cc6)CC4)C5)cc3C2=O)C(=O)N1` (stereo partly drawn) [Compound 315, 2,6-dichloro-N-((1s,3s)-3-(6-((4-(4-(7-(2-(2,6-dioxopiperidin-3-yl)-1,3-dioxoisoindolin-5-yl)-7-azaspiro[3.5]nonan-2-yl)piperazin-1-yl)phenyl)amino)-9H-purin-9-yl)cyclobutyl)benzamide], for which, at CDK2, the “Enzyme degradation CDK2 (% remaining) @ 0.1 μM” value stood at 10%, the “Enzyme degradation CDK2 (% remaining) @ 1 μM” value is recorded as 20% and the “Enzyme degradation CDK2 (% remaining) @ 10 μM” value came to 30%. For the same molecule, on CDK9, the “Enzyme degradation CDK9 (% remaining) @ 0.1 μM” value is 0/0/0%, the “Enzyme degradation CDK9 (% remaining) @ 1 μM” value is 0/0/0% and the “Enzyme degradation CDK9 (% remaining) @ 10 μM” value is listed as 0/0/0%.
For `O=C1CCC(N2C(=O)c3cc(F)c(N4CCC5(CC4)CC(N4CCN(c6ccc(Nc7ncnc8c7ncn8[C@H]7C[C@@H](NC(=O)c8c(Cl)cccc8Cl)C7)cc6)CC4)C5)cc3C2=O)C(=O)N1` (stereo partly drawn) [Compound 316, 2,6-dichloro-N-((1s,3s)-3-(6-((4-(4-(7-(2-(2,6-dioxopiperidin-3-yl)-6-fluoro-1,3-dioxoisoindolin-5-yl)-7-azaspiro[3.5]nonan-2-yl)piperazin-1-yl)phenyl)amino)-9H-purin-9-yl)cyclobutyl)benzamide], at CDK2, the “Enzyme degradation CDK2 (% remaining) @ 0.1 μM” value was found to be 30%, the “Enzyme degradation CDK2 (% remaining) @ 1 μM” value amounted to 30% and the “Enzyme degradation CDK2 (% remaining) @ 10 μM” value turned out to be 50%. Moreover, on CDK9, the “Enzyme degradation CDK9 (% remaining) @ 0.1 μM” value is on record as 0/0/0%, the “Enzyme degradation CDK9 (% remaining) @ 1 μM” value is 0/0/0% and the “Enzyme degradation CDK9 (% remaining) @ 10 μM” value is 0/0/0%.
Regarding `O=C1CC[C@H](n2nnc3ccc(N4CCC5(CC4)CC(N4CCN(c6ccc(Nc7ncnc8c7ncn8[C@H]7C[C@@H](NC(=O)c8c(Cl)cccc8Cl)C7)cc6)CC4)C5)cc3c2=O)C(=O)N1` [Compound 317, 2,6-dichloro-N-((1s,3s)-3-(6-((4-(4-(7-(3-(2,6-dioxopiperidin-3-yl)-4-oxo-3,4-dihydrobenzo[d][1,2,3]triazin-6-yl)-7-azaspiro[3.5]nonan-2-yl)piperazin-1-yl)phenyl)amino)-9H-purin-9-yl)cyclobutyl)benzamide], on CDK2, the “Enzyme degradation CDK2 (% remaining) @ 0.1 μM” value was 10/10/10%, the “Enzyme degradation CDK2 (% remaining) @ 1 μM” value is given as 10/10/10% and the “Enzyme degradation CDK2 (% remaining) @ 10 μM” value is recorded as 10/10/10%. On CDK9, the “Enzyme degradation CDK9 (% remaining) @ 0.1 μM” value is recorded as 0/0/0%, the “Enzyme degradation CDK9 (% remaining) @ 1 μM” value was 0/0/0% and the “Enzyme degradation CDK9 (% remaining) @ 10 μM” value was 0/0/0%.
Take `O=C1CC[C@H](N2C(=O)c3ccc(NCC(=O)N4CCC5(CC4)CC(N4CCN(c6ccc(Nc7ncnc8c7ncn8C7CC(NC(=O)c8c(Cl)cccc8Cl)C7)cc6)CC4)C5)cc3C2=O)C(=O)N1` (stereo partly drawn) [Compound 318, 2,6-dichloro-N-((1s,3s)-3-(6-((4-(4-(7-((2-(2,6-dioxopiperidin-3-yl)-1,3-dioxoisoindolin-5-yl)glycyl)-7-azaspiro[3.5]nonan-2-yl)piperazin-1-yl)phenyl)amino)-9H-purin-9-yl)cyclobutyl)benzamide]: at CDK2, the “Enzyme degradation CDK2 (% remaining) @ 0.1 μM” value was 20%, the “Enzyme degradation CDK2 (% remaining) @ 1 μM” value is recorded as 20% and the “Enzyme degradation CDK2 (% remaining) @ 10 μM” value is given as 40%. On CDK9, the “Enzyme degradation CDK9 (% remaining) @ 0.1 μM” value is 0/0/0%, the “Enzyme degradation CDK9 (% remaining) @ 1 μM” value is reported as 0/0/0% and the “Enzyme degradation CDK9 (% remaining) @ 10 μM” value is recorded as 0/0/0%.
Turning to `O=C1CC[C@H](N2C(=O)c3ccc(N4CCN(CC5CCN(c6ccc(Nc7ncnc8c7ncn8C7CC(NC(=O)Cc8ccccc8)C7)cc6)CC5)CC4)cc3C2=O)C(=O)N1` (stereo partly drawn) [Compound 319, N-((1s,3s)-3-(6-((4-(4-((4-(2-(2,6-dioxopiperidin-3-yl)-1,3-dioxoisoindolin-5-yl)piperazin-1-yl)methyl)piperidin-1-yl)phenyl)amino)-9H-purin-9-yl)cyclobutyl)-2-phenylacetamide], on CDK2, the “Enzyme degradation CDK2 (% remaining) @ 0.1 μM” value is given as 10%, the “Enzyme degradation CDK2 (% remaining) @ 1 μM” value came to 0% and the “Enzyme degradation CDK2 (% remaining) @ 10 μM” value is 0%. At CDK9, the “Enzyme degradation CDK9 (% remaining) @ 0.1 μM” value was 70%, the “Enzyme degradation CDK9 (% remaining) @ 1 μM” value is given as 0% and the “Enzyme degradation CDK9 (% remaining) @ 10 μM” value was determined as 0%.
On to `O=C1CC[C@H](n2nnc3ccc(N4CCN(CC5CCN(c6ccc(Nc7ncnc8c7ncn8C7CC(NC(=O)Cc8ccccc8)C7)cc6)CC5)CC4)cc3c2=O)C(=O)N1` (stereo partly drawn) [Compound 320, N-((1s,3s)-3-(6-((4-(4-((4-(3-(2,6-dioxopiperidin-3-yl)-4-oxo-3,4-dihydrobenzo[d][1,2,3]triazin-6-yl)piperazin-1-yl)methyl)piperidin-1-yl)phenyl)amino)-9H-purin-9-yl)cyclobutyl)-2-phenylacetamide], for which, at CDK2, the “Enzyme degradation CDK2 (% remaining) @ 0.1 μM” value was 20%, the “Enzyme degradation CDK2 (% remaining) @ 1 μM” value was 0% and the “Enzyme degradation CDK2 (% remaining) @ 10 μM” value is on record as 0%. In addition, on CDK9, the “Enzyme degradation CDK9 (% remaining) @ 0.1 μM” value stood at 80%, the “Enzyme degradation CDK9 (% remaining) @ 1 μM” value was found to be 10% and the “Enzyme degradation CDK9 (% remaining) @ 10 μM” value is listed as 10%.
